Experimental data reported in patent publication US20230295200A1 (REGENTS OF THE UNIVERSITY OF MICHIGAN, priority 2022, published 2023).

Each molecule was assayed against T1, STAT6 protein (Homo sapiens, UniProt P42226) (assay: Fluorescence polarization (FP) binding assay, STAT6). Details: not given.
T1 sequence (P42226 1-847): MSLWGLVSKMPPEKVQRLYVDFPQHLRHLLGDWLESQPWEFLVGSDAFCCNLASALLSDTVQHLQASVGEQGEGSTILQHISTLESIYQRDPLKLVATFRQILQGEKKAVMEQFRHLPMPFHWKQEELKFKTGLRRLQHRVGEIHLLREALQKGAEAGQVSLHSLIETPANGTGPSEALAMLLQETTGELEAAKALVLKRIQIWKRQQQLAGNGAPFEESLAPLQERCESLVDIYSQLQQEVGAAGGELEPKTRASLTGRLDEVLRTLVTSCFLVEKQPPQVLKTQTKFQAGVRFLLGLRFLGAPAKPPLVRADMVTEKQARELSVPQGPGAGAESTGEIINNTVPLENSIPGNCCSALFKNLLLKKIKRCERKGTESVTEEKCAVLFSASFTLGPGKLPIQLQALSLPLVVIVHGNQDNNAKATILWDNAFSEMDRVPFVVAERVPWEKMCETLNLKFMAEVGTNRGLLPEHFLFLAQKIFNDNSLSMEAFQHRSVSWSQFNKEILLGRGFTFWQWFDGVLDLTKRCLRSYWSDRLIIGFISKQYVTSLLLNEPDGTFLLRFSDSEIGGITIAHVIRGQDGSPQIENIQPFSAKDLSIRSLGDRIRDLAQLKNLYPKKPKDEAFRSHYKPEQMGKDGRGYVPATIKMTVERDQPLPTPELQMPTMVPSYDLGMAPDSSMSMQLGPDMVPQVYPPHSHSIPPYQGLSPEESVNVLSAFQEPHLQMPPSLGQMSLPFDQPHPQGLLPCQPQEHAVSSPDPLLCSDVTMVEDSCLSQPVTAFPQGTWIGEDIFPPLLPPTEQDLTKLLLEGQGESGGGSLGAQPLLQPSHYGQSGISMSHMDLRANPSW
Procedure, shortened: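 Each well holds 200 nM STAT5 and/or STAT6 with 5 nM fluorescent tracer in PBS pH 7.4 (0.01% BGG, 0.01% Tween-20, 2 mM DTT). Binding reaches equilibrium over 1 h at room temperature after brief shaking, and polarization data are fitted nonlinearly.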

SMILES	Ki [µM]
CCOP(=O)(O)C(F)(F)c1ccc2sc(C(=O)N[C@H]3CN(C(C)=O)CC[C@H]4CC[C@@H](C(=O)N5CCC6(CCCCCC6)C5)N4C3=O)cc2c1 [Compound 384, ethyl hydrogen ((2-(((5S,85,10aR)-3-acetyl-6-oxo-8-(2-azaspiro[4.6]undecane-2-carbonyl)decahydropyrrolo[1,2-a][1,5]diazocin-5-yl)carbamoyl)benzo[b]thiophen-5-yl)difluoromethyl)phosphonate]	> 10
CCOP(=O)(O)C(F)(F)c1ccc2sc(C(=O)N[C@H]3CN(C(C)=O)CC[C@H]4CC[C@@H](C(=O)N5CCCC56CCCC6)N4C3=O)cc2c1 [Compound 386, ethyl hydrogen ((2-(((5S,8S,10aR)-3-acetyl-6-oxo-8-(1-azaspiro[4.4]nonane-1-carbonyl)decahydropyrrolo[1,2-a][1,5]diazocin-5-yl)carbamoyl)benzo[b]thiophen-5-yl)difluoromethyl)phosphonate]	> 10

Same assay, conditions: FP competition, 5 nM fluorescein-labeled tracer, 200 nM protein, PBS pH7.4; read-out: Binding STAT6

SMILES	Ki [µM]
CC(=O)N1CC[C@H]2CC[C@@H](C(=O)N3CCC(C)(C(C)C)C3)N2C(=O)[C@@H](NC(=O)c2cc3cc(C(F)(F)P(=O)(O)O)ccc3s2)C1 (stereo partly drawn) [Compound 390, ((2-(((5S,8S,10aR)-3-acetyl-8-(3-isopropyl-3-methylpyrrolidine-1-carbonyl)-6-oxodecahydropyrrolo[1,2-a][1,5]diazocin-5-yl)carbamoyl)benzo[b]thiophen-5-yl)difluoromethyl)phosphonic acid]	> 10
CC(=O)N1CC[C@H]2CC[C@@H](C(=O)N3CCCCC4(CCCC4)C3)N2C(=O)[C@@H](NC(=O)c2cc3cc(C(F)(F)P(=O)(O)O)ccc3s2)C1 [Compound 391, ((2-(((5S,85,10aR)-3-acetyl-6-oxo-8-(7-azaspiro[4.6]undecane-7-carbonyl)decahydropyrrolo[1,2-a][1,5]diazocin-5-yl)carbamoyl)benzo[b]thiophen-5-yl)difluoromethyl)phosphonic acid]	> 10
CC(=O)N1CC[C@H]2CC[C@@H](C(=O)N3CCC(C(N)=O)(C(F)(F)F)C3)N2C(=O)[C@@H](NC(=O)c2cc3cc(C(F)(F)P(=O)(O)O)ccc3s2)C1 (stereo partly drawn) [Compound 392, ((2-(((5S,8S,10aR)-3-acetyl-8-(3-carbamoyl-3-(trifluoromethyl)pyrrolidine-1-carbonyl)-6-oxodecahydropyrrolo[1,2-a][1,5]diazocin-5-yl)carbamoyl)benzo[b]thiophen-5-yl)difluoromethyl)phosphonic acid]	> 10
CC(=O)N1CC[C@H]2CC[C@@H](C(=O)N3CCC(C)(c4ccccc4)C3)N2C(=O)[C@@H](NC(=O)c2cc3cc(C(F)(F)P(=O)(O)O)ccc3s2)C1 (stereo partly drawn) [Compound 393, ((2-(((5S,8S,10aR)-3-acetyl-8-(3-methyl-3-phenylpyrrolidine-1-carbonyl)-6-oxodecahydropyrrolo[1,2-a][1,5]diazocin-5-yl)carbamoyl)benzo[b]thiophen-5-yl)difluoromethyl)phosphonic acid]	> 10
CC(=O)N1CC[C@H]2CC[C@@H](C(=O)N(C)c3ccc(Br)cc3)N2C(=O)[C@@H](NC(=O)c2cc3cc(C(F)(F)P(=O)(O)O)ccc3s2)C1 [Compound 394, ((2-(((5S,8S,10aR)-3-acetyl-8-((4-bromophenyl)(methyl)carbamoyl)-6-oxodecahydropyrrolo[1,2-a][1,5]diazocin-5-yl)carbamoyl)benzo[b]thiophen-5-yl)difluoromethyl)phosphonic acid]	> 10
CC(=O)N1CC[C@H]2CC[C@@H](C(=O)N3CCC(C)(C4CC4)C3)N2C(=O)[C@@H](NC(=O)c2cc3cc(C(F)(F)P(=O)(O)O)ccc3s2)C1 (stereo partly drawn) [Compound 395, ((2-(((5S,8S,10aR)-3-acetyl-8-(3-cyclopropyl-3-methylpyrrolidine-1-carbonyl)-6-oxodecahydropyrrolo[1,2-a][1,5]diazocin-5-yl)carbamoyl)benzo[b]thiophen-5-yl)difluoromethyl)phosphonic acid]	> 10

Now from value to molecule:

Ki [µM]	SMILES
> 10	CC(=O)N1CC[C@H]2CC[C@@H](C(=O)N3CCC4(CCCC4)C3)N2C(=O)[C@@H](NC(=O)c2cc3cc(C(F)(F)P(=O)(O)O)ccc3s2)C1 [Compound 382, ((2-(((5S,8S,10aR)-3-acetyl-6-oxo-8-(2-azaspiro[4.4]nonane-2-carbonyl)decahydropyrrolo[1,2-a][1,5]diazocin-5-yl)carbamoyl)benzo[b]thiophen-5-yl)difluoromethyl)phosphonic acid]
> 10	CC(=O)N1CC[C@H]2CC[C@@H](C(=O)N3CCC4(CCCCC4)C3)N2C(=O)[C@@H](NC(=O)c2cc3cc(C(F)(F)P(=O)(O)O)ccc3s2)C1 [Compound 383, ((2-(((5,8S,10aR)-3-acetyl-6-oxo-8-(2-azaspiro[4.5]decane-2-carbonyl)decahydropyrrolo[1,2-a][1,5]diazocin-5-yl)carbamoyl)benzo[b]thiophen-5-yl)difluoromethyl)phosphonic acid]
> 10	CC(=O)N1CC[C@H]2CC[C@@H](C(=O)N3CCC4(CCCCCC4)C3)N2C(=O)[C@@H](NC(=O)c2cc3cc(C(F)(F)P(=O)(O)O)ccc3s2)C1 [Compound 385, ((2-(((5S,8S,10aR)-3-acetyl-6-oxo-8-(2-azaspiro[4.6]undecane-2-carbonyl)decahydropyrrolo[1,2-a][1,5]diazocin-5-yl)carbamoyl)benzo[b]thiophen-5-yl)difluoromethyl)phosphonic acid]
> 10	CC(=O)N1CC[C@H]2CC[C@@H](C(=O)N3CCCC34CCCC4)N2C(=O)[C@@H](NC(=O)c2cc3cc(C(F)(F)P(=O)(O)O)ccc3s2)C1 [Compound 387, ((2-(((5S,8S,10aR)-3-acetyl-6-oxo-8-(1-azaspiro[4.4]nonane-1-carbonyl)decahydropyrrolo[1,2-a][1,5]diazocin-5-yl)carbamoyl)benzo[b]thiophen-5-yl)difluoromethyl)phosphonic acid]
> 10	CCN(C(=O)[C@@H]1CC[C@@H]2CCN(C(C)=O)C[C@H](NC(=O)c3cc4cc(C(F)(F)P(=O)(O)O)ccc4s3)C(=O)N21)c1ccc(Cl)cc1 [Compound 388, ((2-(((5S,8S,10aR)-3-acetyl-8-((4-chlorophenyl)(ethyl)carbamoyl)-6-oxodecahydropyrrolo[1,2-a][1,5]diazocin-5-yl)carbamoyl)benzo[b]thiophen-5-yl)difluoromethyl)phosphonic acid]
1 to 10	CC(=O)N1CC[C@H]2CC[C@@H](C(=O)N(c3ccc(Cl)cc3)C(C)C)N2C(=O)[C@@H](NC(=O)c2cc3cc(C(F)(F)P(=O)(O)O)ccc3s2)C1 [Compound 389, ((2-(((5S,8S,10aR)-3-acetyl-8-((4-chlorophenyl)(isopropyl)carbamoyl)-6-oxodecahydropyrrolo[1,2-a][1,5]diazocin-5-yl)carbamoyl)benzo[b]thiophen-5-yl)difluoromethyl)phosphonic acid]
